Drawing on paper PMC6934184, “Selective DNA-PKcs inhibition extends the therapeutic index of localized radiotherapy and chemotherapy” (The Journal of Clinical Investigation, 2019), this text covers inhibition for one compound.

The assay has as its target T1, GRK6 (Homo sapiens, UniProt P43250).
T1 construct: purchased Thermo Fisher Scientific (Life Technologies) SelectScreen
The experiment in a line: SelectScreen Z'LYTE. Format: biochemical. The method, boiled down: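 Percent values come from Thermo SelectScreen profiling of NU5455, combining activity and binding assays. CSF1R was run in Z'LYTE format at Km app ATP, and CAMK1 in Adapta format with ATP listed at 10.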

T1 sequence (P43250 whole entry): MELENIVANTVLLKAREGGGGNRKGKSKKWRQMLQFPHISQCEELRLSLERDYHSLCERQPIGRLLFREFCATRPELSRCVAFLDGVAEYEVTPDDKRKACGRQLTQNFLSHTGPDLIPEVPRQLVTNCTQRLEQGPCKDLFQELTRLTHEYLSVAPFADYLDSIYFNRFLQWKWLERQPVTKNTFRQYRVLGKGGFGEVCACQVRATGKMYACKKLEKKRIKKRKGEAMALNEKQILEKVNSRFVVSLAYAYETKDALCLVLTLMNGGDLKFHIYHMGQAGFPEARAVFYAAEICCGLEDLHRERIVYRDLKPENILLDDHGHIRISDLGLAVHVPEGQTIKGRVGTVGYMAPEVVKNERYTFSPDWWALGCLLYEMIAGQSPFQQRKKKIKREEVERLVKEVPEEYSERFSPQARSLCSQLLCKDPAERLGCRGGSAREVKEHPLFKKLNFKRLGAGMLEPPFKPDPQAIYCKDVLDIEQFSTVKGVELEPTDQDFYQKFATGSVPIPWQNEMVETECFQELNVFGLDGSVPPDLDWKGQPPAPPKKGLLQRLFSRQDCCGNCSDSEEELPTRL

The compound `CN(C(=O)CN1CCOCC1)c1ccc2sc3c(-c4cccc5c(=O)cc(N6CC7CCC(C6)O7)oc45)cccc3c2c1` [NU5455] returned an inhibition at 1 µM of 3.7%.

In general, inhibition refers to the relative decrease from the control value, in per cent. Higher therefore signals a strong effect.
